Assay [1] has as its system HCT116 isogenic IDH1-R132C mutant cells. As to the kind of experiment: Cellular 2-HG assay using HCT116 mutant IDH1 cells (R132C). Format: cell-based. Particulars: Homo sapiens, HCT-116; cellular 2-HG inhibition, 24 hours, RapidFire mass spectrometry; read-out: HCT IDH1 R132C Range IC50. The protocol: (§1) HCT116 isogenic IDH1-R132H and IDH1-R132C mutant cells were cultured in growth media (McCoy's 5 A, 10% fetal bovine serum, 1× antibiotic-antimycotic solution and 0.3 mg/mL G418) in 5% CO2 in an incubator at 37° C. To prepare the assay, cells were trypsinized and resuspended in assay media (McCoy's 5 A with no L-glutamine, 10% fetal bovine serum, 1× antibiotic-antimycotic solution and 0.3 mg/mL G418). An aliquot of 10,000 cells/100 μL was transferred to each well of a clear 96-well tissue culture plate. The cells were incubated in 5% CO2 at 37° C. in an incubator overnight to allow for proper cell attachment. An aliquot of 50 μL of compound containing assay media were then added to each well and the assay plate was kept in 5% CO2 at 37° C. in an incubator for 24 hours. The media was then removed from each well and 150 μL of a methanol/water mixture (80/20 v/v) was added to each well. The plates were kept at −80° C. freezer overnight to allow for complete cell lysis. An aliquot of 125 μL of extracted supernatant was analyzed by RapidFire high-throughout-mass spectrometry (Agilent) to determine the cellular 2-HG level. The IC50 of a given compound was calculated by fitting the dose response curve of cellular 2-HG inhibition at a given concentration with the four parameter logistic equation

Assay [2] concerns the target IDH1-R132H recombinant protein (Homo sapiens (Human), UniProt O75874, R132H). As to the kind of experiment: IDH1-R132H enzymatic assay. Particulars: inhibition of NADPH consumption, diaphorase/resazurin readout; read-out: Enzyme IDH1 R132H Range IC50. Format: biochemical. For orientation: Resazurin is reduced to fluorescent resorufin, in cell work by metabolically active cells.

Assay [3] deals with IDH1-R132C recombinant protein (Homo sapiens (Human), UniProt O75874, R132C). The assay can be described thus: IDH1-R132C enzymatic assay. Format: biochemical. Particulars: inhibition of NADPH consumption, diaphorase/resazurin readout; read-out: Enzyme IDH1 R132C Range IC50. The procedure:
Assays were performed in a 384-well black plate. […] After the plate was centrifuged briefly, an aliquot of 10 μL of 2 mM α-ketoglutarate and 20 μM NADPH solution prepared in assay buffer was then added to each well and the reaction was maintained at 25° C. for 45 minutes. An aliquot of 10 μL of diaphorase solution (0.15 U/mL diaphorase and 30 μM Resazurin in assay buffer) was added to each well. […] The IC50 of a given compound was calculated by fitting the dose response curve of inhibition of NADPH consumption at a given concentration with the four parameter logistic equation.

In assay [4] the test system is HCT116 isogenic IDH1-R132H mutant cells. The assay can be described thus: Cellular 2-HG assay using HCT116 mutant IDH1 cells (R132H). To be noted: Homo sapiens, HCT-116; cellular 2-HG inhibition, 24 hours, RapidFire mass spectrometry; read-out: HCT IDH1 R132H Range IC50. In kind it is cell-based. The protocol:
as §1

Bounds are passed on as bounds.

Three compounds from US10253015B2, “Pyridinyl quinolinone derivatives as mutant-isocitrate dehydrogenase inhibitors” (FORMA TM2, Inc., priority 2014, dated 2019) can be followed below.

What is called IC50 is the concentration that gives 50% inhibition.

Chain of IDH1-R132C recombinant protein (O75874 whole entry R132C): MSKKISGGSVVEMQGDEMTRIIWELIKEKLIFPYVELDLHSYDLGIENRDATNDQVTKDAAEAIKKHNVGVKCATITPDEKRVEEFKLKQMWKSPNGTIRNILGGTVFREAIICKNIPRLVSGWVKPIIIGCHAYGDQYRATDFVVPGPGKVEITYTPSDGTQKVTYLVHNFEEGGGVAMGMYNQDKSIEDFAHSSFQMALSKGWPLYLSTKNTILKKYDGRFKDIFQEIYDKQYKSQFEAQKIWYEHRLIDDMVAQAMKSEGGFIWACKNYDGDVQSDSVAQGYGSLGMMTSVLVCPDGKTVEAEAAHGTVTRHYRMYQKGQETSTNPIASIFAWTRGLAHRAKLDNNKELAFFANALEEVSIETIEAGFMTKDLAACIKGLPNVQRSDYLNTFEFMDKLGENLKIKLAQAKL
Chain of IDH1-R132H recombinant protein (O75874 whole entry R132H): as the sequence (O75874 whole entry R132C) above, with C132H counted along it

As to `COc1nc(C#N)ccc1N[C@@H](C)c1cc2cc(Cl)ccc2[nH]c1=O` [Compound I-7, 5-{[(1S)-1-(6-chloro-2-oxo-1,2-dihydroquinolin-3-yl)ethyl]amino}-6-methoxypyridine-2-carbonitrile], the IC50 in assay [1] was 100 to 1000 nM; in assay [2], < 100 nM; in assay [3] it was 1000 to 10000 nM; in assay [4], 100 to 1000 nM.
With `Cc1nc(N[C@@H](C)c2cc3cc(Cl)ccc3[nH]c2=O)ccc1C#N` [Compound I-4, (S)-6-(1-(6-chloro-2-oxo-1,2-dihydroquinolin-3-yl)ethylamino)-2-methyl nicotinonitrile], the IC50 in assay [1] was 100 to 1000 nM; in assay [2], < 100 nM; in assay [3], 100 to 1000 nM; in assay [4], 100 to 1000 nM.
In the case of `COc1cc2[nH]c(=O)c(CNc3ccc(C#N)c(C)n3)cc2cc1Cl` [Compound I-83, 6-{[(6-chloro-7-methoxy-2-oxo-1,2-dihydroquinolin-3-yl)methyl]amino}-2-methylpyridine-3-carbonitrile], the IC50 in assay [1] was > 1000 nM; in assay [2], < 100 nM; in assay [3], > 10000 nM; in assay [4] it was > 1000 nM.
